Measured values published in patent EP0252380B1, “Antibiotic LL-E19020 alpha and beta” (AMERICAN CYANAMID COMPANY, priority 1986, dated 1988).
Marks after values point to notes of the source that are not given here.

Tests used:
[1] = tested on: Babesia bovis; test: Anti-Babesia bovis activity, 3H hypoxanthine incorporation in in vitro culture; conditions: parasitemia of 4%
[2] = tested on: Staphylococcus aureus; test: Minimum inhibitory concentration by agar dilution (Table VI); format: cell-based; conditions: 7 strains tested
[3] = Weight gains and feed efficiency in broiler chicks treated with E19020 alpha (Table IX A); format: in vivo; conditions: for FEED/GAIN 0-3 WEEKS: control 1.43; for FEED/GAIN 0-7 WEEKS: control 1.99; for WEIGHT GAIN IN GRAMS 0-3 WEEKS: control 608; for WEIGHT GAIN IN GRAMS 0-7 WEEKS: control 2145
Description: Five male and five female one day old Peterson X Arbor Acres chicks are allotted to starter battery cages by weight. Cages are randomized to treatment groups with seven replicates per treatment. […] The positive standard is penicillin at 200 ppm. Diets are prepared weekly.

In the case of `C/C=C\C=C\[C@@H]1O[C@](O)([C@H](CO[C@H]2C[C@@H](OC)[C@@H](O[C@@H]3C[C@@H](OC)[C@@H](O[C@H]4C[C@H](OC)[C@H](O)[C@H](C)O4)[C@H](C)O3)[C@@H](C)O2)C(=O)NC/C=C/C=C(\C)[C@@H](OC)[C@H](C)[C@H]2C[C@H](O)[C@H](/C=C/C=C/C=C/C(=O)O)O2)[C@H](OC(=O)Cc2ccccc2)[C@H](O)C1(C)C` [LL-E19020 alpha], the 50% inhibitory concentration [1] is reported as 0.625 µg/mL, the MIC [2] is reported as “≧ 256 µg/ml” and the “FEED/GAIN % IMPROVEMENT OVER CONTROLS 0-3 WEEKS” value ([3]; 6.25 PPM) is reported as 3.5%. The “FEED/GAIN % IMPROVEMENT OVER CONTROLS 0-7 WEEKS” value ([3]; 6.25 PPM) was 5.0%, the “WEIGHT GAIN % IMPROVEMENT OVER CONTROLS 0-3 WEEKS” value ([3]; 6.25 PPM) was 4.4% and the “WEIGHT GAIN % IMPROVEMENT OVER CONTROLS 0-7 WEEKS” value ([3]; 6.25 PPM) was 1.8%. The “FEED/GAIN 0-3 WEEKS” value ([3]; 6.25 PPM) was 1.38**, the “FEED/GAIN 0-7 WEEKS” value ([3]; 6.25 PPM) was 1.89** and the “WEIGHT GAIN IN GRAMS 0-3 WEEKS” value ([3]; 6.25 PPM) was 635* GRAMS. For the same compound, the “WEIGHT GAIN IN GRAMS 0-7 WEEKS” value ([3]; 6.25 PPM) was 2183 GRAMS, the “FEED/GAIN % IMPROVEMENT OVER CONTROLS 0-3 WEEKS” value ([3]; 12.5 PPM) was 3.5% and the “FEED/GAIN % IMPROVEMENT OVER CONTROLS 0-7 WEEKS” value ([3]; 12.5 PPM) was 4.0%. For the same compound, the “WEIGHT GAIN % IMPROVEMENT OVER CONTROLS 0-3 WEEKS” value ([3]; 12.5 PPM) was 6.3%, the “WEIGHT GAIN % IMPROVEMENT OVER CONTROLS 0-7 WEEKS” value ([3]; 12.5 PPM) was 2.5% and the “FEED/GAIN 0-3 WEEKS” value ([3]; 12.5 PPM) was 1.38**. For the same compound, the “FEED/GAIN 0-7 WEEKS” value ([3]; 12.5 PPM) was 1.91**, the “WEIGHT GAIN IN GRAMS 0-3 WEEKS” value ([3]; 12.5 PPM) was 647* GRAMS and the “WEIGHT GAIN IN GRAMS 0-7 WEEKS” value ([3]; 12.5 PPM) was 2198 GRAMS. For the same compound, the “FEED/GAIN % IMPROVEMENT OVER CONTROLS 0-3 WEEKS” value ([3]; 25 PPM) was 3.5%, the “FEED/GAIN % IMPROVEMENT OVER CONTROLS 0-7 WEEKS” value ([3]; 25 PPM) was 5.0% and the “WEIGHT GAIN % IMPROVEMENT OVER CONTROLS 0-3 WEEKS” value ([3]; 25 PPM) was 8.4%. For the same compound, the “WEIGHT GAIN % IMPROVEMENT OVER CONTROLS 0-7 WEEKS” value ([3]; 25 PPM) was 5.7%, the “FEED/GAIN 0-3 WEEKS” value ([3]; 25 PPM) was 1.38** and the “FEED/GAIN 0-7 WEEKS” value ([3]; 25 PPM) was 1.89**. For the same compound, the “WEIGHT GAIN IN GRAMS 0-3 WEEKS” value ([3]; 25 PPM) was 659** GRAMS, the “WEIGHT GAIN IN GRAMS 0-7 WEEKS” value ([3]; 25 PPM) was 2267* GRAMS and the “FEED/GAIN % IMPROVEMENT OVER CONTROLS 0-3 WEEKS” value ([3]; 50 PPM) was 2.8%. The “FEED/GAIN % IMPROVEMENT OVER CONTROLS 0-7 WEEKS” value ([3]; 50 PPM) was 4.0%, the “WEIGHT GAIN % IMPROVEMENT OVER CONTROLS 0-3 WEEKS” value ([3]; 50 PPM) was 5.6% and the “WEIGHT GAIN % IMPROVEMENT OVER CONTROLS 0-7 WEEKS” value ([3]; 50 PPM) was 2.8%. For the same compound, the “FEED/GAIN 0-3 WEEKS” value ([3]; 50 PPM) was 1.39*, the “FEED/GAIN 0-7 WEEKS” value ([3]; 50 PPM) was 1.91** and the “WEIGHT GAIN IN GRAMS 0-3 WEEKS” value ([3]; 50 PPM) was 642* GRAMS. The “WEIGHT GAIN IN GRAMS 0-7 WEEKS” value ([3]; 50 PPM) was 2206 GRAMS, the “FEED/GAIN % IMPROVEMENT OVER CONTROLS 0-3 WEEKS” value ([3]; 100 PPM) was 5.6% and the “FEED/GAIN % IMPROVEMENT OVER CONTROLS 0-7 WEEKS” value ([3]; 100 PPM) was 4.0%. The “WEIGHT GAIN % IMPROVEMENT OVER CONTROLS 0-3 WEEKS” value ([3]; 100 PPM) was 7.3%, the “WEIGHT GAIN % IMPROVEMENT OVER CONTROLS 0-7 WEEKS” value ([3]; 100 PPM) was 2.8% and the “FEED/GAIN 0-3 WEEKS” value ([3]; 100 PPM) was 1.35**. The “FEED/GAIN 0-7 WEEKS” value ([3]; 100 PPM) was 1.91**, the “WEIGHT GAIN IN GRAMS 0-3 WEEKS” value ([3]; 100 PPM) was 652** GRAMS and the “WEIGHT GAIN IN GRAMS 0-7 WEEKS” value ([3]; 100 PPM) was 2204 GRAMS.
